{"source": "patent US12571052B2", "about": "“Immunomodulatory RNA” (THE TRUSTEES OF THE UNIVERSITY OF PENNSYLVANIA, priority 2017, dated 2026)", "key": {"[1]": {"system": "myeloid/dendritic cells in the spleen", "assay": "Spleen myeloid/dendritic cell activation after intravenous injection", "type": "in vivo, mice"}, "B16-F10 tumor cells [2]": {"system": "B16-F10 tumor cells", "assay": "B16-F10/MEF co-implantation, tumor growth and survival under checkpoint blockade", "type": "in vivo, C57BL/6 mice", "conditions": "MYC activated MEFs vs MEFs co-expressing SRP9/14; anti-CTLA-4 or anti-PD-1", "protocol": "Wild type (WT) C57BL/6 mice were injected with 5×10^4 B16-F10 tumor cells subcutaneously in the flank with 5×10^4 MYC activated mouse embryonic fibroblasts (MEFs) or MYC activated MEFs co-expressing SRP9/14. MYC activation is inducible with 4-OHT and results in the secretion of exosomes containing unshielded 7SL1 RNA, while co-expression of SRP9/14 ensures the 7SL1 RNA remains relatively shielded, allowing measurement of the stimulatory capacity specifically of the unshielded form (Nabet B Y, et al. Cell. 2017; 170 (2): 352-366.e13). Mice were subsequently treated with the anti-CTLA-4 or anti-PD-1 antibody (or not), and then tumor growth was monitored by caliper. Endpoint criterion was considered a tumor measurement of 1.5 cm in any direction.\nTumors were implanted as described in FIGS. 25A-25B and treated with CSF1R inhibitor BLZ945 (Novartis) every 2 days for 2 weeks starting at day 0 to prevent M2 polarization of infiltrating myeloid cells. Mice were additionally treated with anti-CTLA4 (FIG. 27A) or anti-CTLA4 and anti-PD1 (FIGS. 27B and 27C) on days 5, 8, and 11. Tumor growth was monitored by caliper."}, "[3]": {"system": "1833 ISG-R breast cancer xenografts", "assay": "Intratumoral injection into subcutaneous 1833 xenografts", "type": "in vivo, athymic nude mice", "protocol": "In Vivo Mouse Studies. For exosome injection studies, 1×10^6 1833 breast cancer cells were injected with Matrigel (Corning) into the flanks of 6-8 week old athymic nude mice and 10 μg of mono- or co-culture exosomes were directly injected into the tumors 3 times a week. For RNA injection studies, 50 ng of 7SL or GAPDH300 RNA encapsulated into RNAiMax liposomes were directly injected into the tumors 3 times a week. Subcutaneous tumor growth was measured by caliper. For lung colonization studies, 2×10^5 luciferase-labeled 4175 breast cancer cells were injected in the tail vein. Injections were confirmed by immediate imaging using a Xenogen IVIS 100 system. Serum was isolated from mice by cardiac puncture."}, "B16-F10 tumor cells [4]": {"system": "B16-F10 tumor cells", "assay": "B16-F10/MEF co-implantation, tumor immune populations by flow cytometry", "type": "in vivo, C57BL/6 mice", "conditions": "for myeloid infiltration (macrophages, MDSCs) into the tumor microenvironment: tumors harvested 13 days later", "protocol": "Mice were implanted with tumors as described FIGS. 25A-25B. Tumors were harvested 13 days later and assessed for infiltration of macrophages or myeloid derived suppressor cells (MDSCs). Macrophages are considered Lin−, F4/80+, and CD11b+ cells. MDSCs are considered Lin−, F4/80−, CD11c−, CD11b+, and Ly6C+ cells. Tumors were treated with anti-CTLA4 blocking antibody (FIG. 26D) as described in FIGS. 25A and 25B, and tumors were harvested at d15 to measure M2 polarization of macrophages as marked by CD206.\nFurthermore, mice were implanted with the same tumors and subsequently treated with the CSF1R inhibitor BLZ945. Polarization of macrophages and frequency of CD103+DCs were tested.\nIn addition, mice were implanted with tumors and treated with anti-CTLA4+/−CSF1Ri BLZ945. Tumors were harvested 13 days later and immune populations were assessed using an unbiased clustering of flow cytometry data.\nMice were implanted with B16-F10 tumor cells mixed 1:1 with MEFs or MEFs co-expressing SRP9/14 (FIG. 35B). Tumors were harvested 2 weeks post-injection and analyzed for immune cell populations. Unshielded RN7SL1 increased the frequency of dendritic cells, the percentage of CD103+ dendritic cells, the percentage of CD69+CD8+ T cells, and the percentage of PD1+CD8+ T cells in tumors (FIG. 35C). […] Without wishing to be bound by theory, a CSF1R inhibitor blocks M2 polarization and may synergize with unshielded RN7SL1."}, "[5]": {"conditions": "tumors harvested 2 weeks post-injection"}}, "data": [{"substance": "RN7SL1: Human RN7SL1 (7SL, srpRNA) RNA, 5'ppp, in vitro transcribed or secreted unshielded in exosomes; SEQ ID NO: 2", "values": [{"measurement": "myeloid/dendritic cell maturation and activation (MHCII+ and CD86+)", "setting": "[1]", "value": "promote immune cell activation in the neutral immune environment of mouse spleens"}, {"measurement": "response to checkpoint blockade therapy", "setting": "B16-F10 tumor cells [2]", "value": "does not significantly impact response to anti-CTLA-4 or anti-PD-1 therapy"}, {"measurement": "tumor growth", "setting": "[3]; 50 ng liposome-encapsulated RNA intratumorally 3 times a week, RIG-I WT tumors", "value": "enhance tumor growth in a RIG-I-dependent manner"}, {"measurement": "tumor growth", "setting": "[3]; 50 ng liposome-encapsulated RNA intratumorally, RIG-I KO tumors", "value": "no effect was observed"}, {"measurement": "ISG expression in tumors", "setting": "[3]; tumors expressing WT RIG-I, human specific primers", "value": "an increase in ISG expression"}, {"measurement": "T cell activation", "setting": "B16-F10 tumor cells [4]; dependent on MyD88", "value": "enhanced T cell activation"}, {"measurement": "percentage of CD69+CD8+ T cells", "setting": "B16-F10 tumor cells [4]; [5]", "value": "increased"}, {"measurement": "percentage of CD103+ dendritic cells", "setting": "B16-F10 tumor cells [4]; [5]", "value": "increased"}, {"measurement": "percentage of PD1+CD8+ T cells", "setting": "B16-F10 tumor cells [4]; [5]", "value": "increased"}, {"measurement": "percentages of macrophages and MDSCs in CD45+ cells", "setting": "B16-F10 tumor cells [4]; [5]", "value": "also increased"}, {"measurement": "frequency of dendritic cells in tumors", "setting": "B16-F10 tumor cells [4]; tumors harvested 2 weeks post-injection, listed as Unshielded RN7SL1", "value": "increased"}, {"measurement": "frequency of dendritic cells in tumors", "setting": "B16-F10 tumor cells [4]; tumors harvested 2 weeks post-injection, listed as unshielded 7SL1", "value": "increased the frequency of DCs in vivo"}, {"measurement": "myeloid infiltration (macrophages, MDSCs) into the tumor microenvironment", "setting": "B16-F10 tumor cells [4]", "value": "triggered the infiltration of macrophages and MDSCs into the tumor microenvironment"}, {"measurement": "myeloid infiltration (macrophages, MDSCs) into the tumor microenvironment", "setting": "B16-F10 tumor cells [4]; listed as unshielded 7SL", "value": "drives myeloid infiltration into the tumor microenvironment"}]}]}
